We go through 18 compounds from patent US4537729A, “Dimethylphosphoramidates” (Development of Finance Corporation of New Zealand, priority 1981, dated 1985).

Like-named read-outs stand apart in the source and are kept apart here.

One data set concerns L1210 tumour cells. Put plainly: L1210 murine leukaemia cell culture, growth inhibition over 70 hours. The data set is classed as cell-based. Conditions: Mus musculus.
A further data set relates to P388 leukaemia. Put plainly: P388 leukaemia in vivo test in mice (i.p.). The arrangement: species or system mouse. The conditions noted are these: for ILS (percentage increase in life span): at optimal dose (OD), days 1, 5 and 9, P388 i.p., controls survive 11 days, >20% significant; for Active: at the stated dose, P388 in vivo. The source says:
The P388 mouse leukaemia system has been shown by studies at the National Cancer Institute, U.S.A., to be a useful system for detecting agents with antitumour activity against clinical cancer (A. Goldin, J. M. Venditti, J. S. MacDonald, F. M. Muggia, J. E. Henney and V. T. De Vita, Europ.J.Cancer 17, 129-142 (1981).
Tumour P388 i.p.--P388 cells were obtained as frozen stocks from Mason Research Inc., U.S.A., and passaged introperitoneally according to standard methods (Cancer Chemother.Rep. 3, Part 3, page 9 (1972) in DBA-2 mice of either sex. Groups of six Fl hybrid mice (DBA-2 male x C57 Bl female, g weight 20±1 g) were injected intraperitoneally with 10^6 cells on day 0.
O.D.=optimal drug dose (in milligrams per kilogram), administered as a solution in 0.1 ml of 30% v/v ethyl alcohol in water on days 1, 5 and 9 after tumour inoculation. The drug is administered as a soluble acid addition salt.
ILS=percentage increase in life span of treated animals over that of groups of control animals injected with tumour alone. The average survival of control mice was 11 days. Values of ILS greater than 20% are considered statistically significant.
"Y. implies a significant value of drug activity at the stated dose.".

The nature of data set [1]: Reversed-phase partition chromatography (Rm). The data set is classed as physicochemical. Conditions: lipophilic-hydrophilic balance, linearly related to 1-octanol/water partition coefficients. From the text: Rm=a measure of the compound's lipophilic-hydrophilic balance from reversed-phase partition chromatography. Rm is linearly related to partition coefficients obtained in the 1-octanol/water system.

In a further data set the test system is aerobacter aerogenes. Description: Antibacterial activity. The data set is classed as cell-based.
A further data set concerns alcaligenes viscolactis. Put plainly: Antibacterial activity. The data set is classed as cell-based.
The next data set concerns eschereichia coli. Put plainly: Antibacterial activity. It is filed as cell-based.
The next data set relates to bacillus subtilis. Put plainly: Antibacterial activity. The data set is classed as cell-based.
For the next data set, the system named is sarcina lutea. Put plainly: Antibacterial activity. It is filed as cell-based.
Data set [2] relates to micrococcus lysodeikticus. Description: Antibacterial activity. It is filed as cell-based.
Another data set has as its system neisseria catarrhalis. Put plainly: Antibacterial activity. It is filed as cell-based.
The next data set relates to staphylococcus aureus. Description: Antibacterial activity. The data set is classed as cell-based.
Another data set has as its system xanthomonas phaseoli. Put plainly: Antibacterial activity. The data set is classed as cell-based.
Another data set relates to streptococcus faecalis. Description: Antibacterial activity. The data set is classed as cell-based.
The next data set deals with tumour. Conditions: literature; cited from earlier work.

One may read the chromatographic logP as lipophilicity estimated from chromatographic retention. Turning to `COP(=O)(Nc1ccc(Nc2c3ccccc3nc3ccccc23)cc1)OC` [Compound 1], in the data set with L1210 tumour cells (L1210, 70 h, read-out: ID50), the IC50 was 15 nM. Further, the “ILS (percentage increase in life span)” value in the data set on P388 leukaemia worked out at 74%. In the data set with P388 leukaemia, the Active result is recorded as “Y”. This compound registered a chromatographic logP in data set [1] of 0.31. The antibacterial activity entry (in the data set with aerobacter aerogenes; in the data set on alcaligenes viscolactis; with eschereichia coli; in the data set with bacillus subtilis; with sarcina lutea; in [2]) was “active” in each case. For the same compound, the antibacterial activity entry with neisseria catarrhalis, in the data set with staphylococcus aureus, in the data set on xanthomonas phaseoli and in the data set on streptococcus faecalis was “active” throughout.
For `COc1cc(NP(=O)(OC)OC)ccc1Nc1c2ccccc2nc2ccccc12` [Compound 2], the IC50 in the data set on L1210 tumour cells (L1210, 70 h, read-out: ID50) is 70 nM. In addition, in the data set on P388 leukaemia, the “ILS (percentage increase in life span)” value is given as 67% and the Active entry was “Y”. The chromatographic logP in [1] stood at 0.47.
With `COP(=O)(Nc1ccc(Nc2c3ccccc3nc3cc(C)ccc23)cc1)OC` [Compound 3], the IC50 in the data set with L1210 tumour cells (L1210, 70 h, read-out: ID50) came out at 6.8 nM. Further, in the data set with P388 leukaemia, the “ILS (percentage increase in life span)” value is 80% and the Active entry is “Y”. This compound came in with a chromatographic logP in [1] of 0.49.
The corresponding values for `COP(=O)(Nc1ccc(Nc2c3ccccc3nc3cc(Cl)ccc23)cc1)OC` [Compound 4] are 16 nM, 54%, “Y” and 0.46.
The corresponding values for `COc1cc(NP(=O)(OC)OC)ccc1Nc1c2ccccc2nc2cc(Cl)ccc12` [Compound 5] are 12 nM, 78%, “Y” and 0.61.
The corresponding values for `COP(=O)(Nc1ccc(Nc2c3ccccc3nc3cc(Br)ccc23)cc1)OC` [Compound 6] are 15 nM, 76%, “Y” and 0.47.
Regarding `COc1cc(NP(=O)(OC)OC)ccc1Nc1c2ccccc2nc2cc(Br)ccc12` [Compound 7], the IC50 with L1210 tumour cells (L1210, 70 h, read-out: ID50) turned out to be 4.9 nM. In the data set on P388 leukaemia, the “ILS (percentage increase in life span)” value was determined as 83% and the Active entry was “Y”. This compound had a chromatographic logP in data set [1] of 0.57.
In the case of `COP(=O)(Nc1ccc(Nc2c3ccccc3nc3cc([N+](=O)[O-])ccc23)cc1)OC` [Compound 8], in the data set on L1210 tumour cells (L1210, 70 h, read-out: ID50), the IC50 is 74 nM. Also, in the data set with P388 leukaemia, the “ILS (percentage increase in life span)” value is 22% and the Active result was “Y”. The same compound yielded a chromatographic logP in data set [1] of 0.14.
The corresponding values for `COc1cccc2c(Nc3ccc(NP(=O)(OC)OC)cc3)c3ccccc3nc12` [Compound 9] are 20 nM, 44%, “Y” and 0.33.
The corresponding values for `COc1cc(NP(=O)(OC)OC)ccc1Nc1c2ccccc2nc2c(OC)cccc12` [Compound 10] are 12 nM, 76%, “Y” and 0.47.
The corresponding values for `CNC(=O)c1cccc2c(Nc3ccc(NP(=O)(OC)OC)cc3)c3ccccc3nc12` [Compound 11] are 97 nM, 38%, “Y” and 0.18.
As to `CNC(=O)c1cccc2c(Nc3ccc(NP(=O)(OC)OC)cc3OC)c3ccccc3nc12` [Compound 12], in the data set with L1210 tumour cells (L1210, 70 h, read-out: ID50), the IC50 was determined as 18 nM. In addition, in the data set on P388 leukaemia, the “ILS (percentage increase in life span)” value is recorded as 118% and the Active entry is “Y”. The chromatographic logP in data set [1] was determined as 0.28.
For the compound `COP(=O)(Nc1ccc(Nc2c3ccccc3nc3c(C)cccc23)cc1)OC` [Compound 13], the IC50 with L1210 tumour cells (L1210, 70 h, read-out: ID50) was found to be 8.9 nM. Also, in the data set with P388 leukaemia, the “ILS (percentage increase in life span)” value is recorded as 111% and the Active result is on record as “Y”. For the same compound, the chromatographic logP in [1] was 0.46.
For the compound `COc1cc(NP(=O)(OC)OC)ccc1Nc1c2ccccc2nc2c(C)cccc12` [Compound 14], the IC50 in the data set on L1210 tumour cells (L1210, 70 h, read-out: ID50) came to 18 nM. Further, in the data set with P388 leukaemia, the “ILS (percentage increase in life span)” value turned out to be 106% and the Active result is “Y”. This compound also gave a chromatographic logP in [1] of 0.44.
The corresponding values for `CNC(=O)c1cccc2c(Nc3ccc(NP(=O)(OC)OC)cc3OC)c3ccc(Cl)cc3nc12` [Compound 15] are 50 nM, 79%, “Y” and 0.54.
The corresponding values for `COP(=O)(Nc1ccc(Nc2c3cccc(C)c3nc3c(C)cccc23)cc1)OC` [Compound 16] are 17 nM, 109%, “Y” and 0.37.
Turning to `CS(=O)(=O)Nc1ccc(Nc2c3ccccc3nc3ccccc23)cc1` [Compound 17, 4'-(9-acridinylamino)methanesulphonanilide, reference compound], the IC50 with L1210 tumour cells (murine L1210 leukaemia cells, 70 hours, counted cell number reduced by 50%, read-out: ID50 (the source's name)) was 35 nM. Moreover, in the data set on P388 leukaemia, the “ILS (percentage increase in life span)” value amounted to 93% and the Active entry was “Y”. Also, the “antitumour effect (earlier work)” value with tumour is “marked antitumour effect”.
In the case of `COc1cc(NS(C)(=O)=O)ccc1Nc1c2ccccc2nc2ccccc12` [Compound 18, 4'-(9-acridinylamino)methanesulphon-m-anisidide, reference compound], in the data set with P388 leukaemia, the “ILS (percentage increase in life span)” value is given as 78% and the Active entry is given as “Y”.
